The source made the active and inactive calls. The rule behind the calls is not given here.
Legend:
[1] = biological target: T1, Metabotropic glutamate receptor 7 (Homo sapiens, UniProt Q14831); assay: Competitive binding affinity to mGluR7 (unknown origin) assessed as rightward shift in forskolin-induced cAMP production level by measuring fold change preincubated for 15 mins in the presence of LY341495 followed by forskolin stimulation and measured after 5 hrs by luminescence based steady glo assay; settings: filed as agonist, time 315.0 min
[2] = biological target: T1, Metabotropic glutamate receptor 7; assay: Agonist activity at human mGluR7 expressed in CHO cells assessed as change in extracellular impedance incubated for 40 mins by CellKey impedance assay; format: cell-based; settings: filed as agonist
[3] = Cmax in Sprague-Dawley rat at 3 mg/kg, po measured after 24 hrs by LC-MS/MS analysis; format: ADME, organism-based; set-up: dose 3 mg/kg, time 24 hrs, route po; settings: in vivo
Rattus norvegicus [4] = assay: In vivo agonist activity in po dosed alcohol preferring Marchigian-Sardinian rat assessed as reduction in alcohol self-administration measured after 1 hrs; format: functional, organism-based; settings: dose 0.3-3 mg/kg
[5] = Apparent permeability from apical to basolateral side in MDCK-MDR1 cells; format: ADME, cell-based, Canis lupus familiaris; settings: dog
[6] = biological target: T1, Metabotropic glutamate receptor 7; assay: Desensitization at human mGluR7 expressed in CHO cells assessed as reduction in tool agonist response at EC80 concentration preincubated for 1 hrs followed by compound replacement with assay buffer and measured 1 hrs after tool agonist addition by CellKey impedance assay relative to control; format: cell-based
[7] = biological target: T1, Metabotropic glutamate receptor 7; assay: Agonist activity at human mGluR7 expressed in CHO cells expressing CRE-Luc reporter gene assessed as reduction in forskolin-stimulated cAMP production by measuring maximum efficacy preincubated for 15 mins followed by forskolin stimulation and measured after 5 hrs by luminescence based Steady glo assay relative to control; format: cell-based; settings: filed as agonist, time 315.0 min
[8] = AUC(0 to infinity) in Sprague-Dawley rat at 3 mg/kg, po measured after 24 hrs by LC-MS/MS analysis; format: ADME, organism-based; set-up: time 24 hrs, dose 3 mg/kg, route po; settings: in vivo
[9] = biological target: Metabotropic glutamate receptor 2 (Homo sapiens) (UniProt Q14416); assay: Agonist activity at mGluR2 (unknown origin) at 1 to 10 uM by cAMP assay; settings: dose 1-10 µM
[10] = Tmax in Sprague-Dawley rat at 3 mg/kg, po measured after 24 hrs by LC-MS/MS analysis; format: ADME, organism-based; settings: in vivo
[11] = Unbound fraction in rat plasma incubated for 6 hrs by LC-MS/MS based rapid equilibrium dialysis; format: ADME, cell-free
[12] = Unbound fraction in rat brain incubated for 6 hrs by LC-MS/MS based rapid equilibrium dialysis; format: ADME, tissue-based
[13] = biological target: Metabotropic glutamate receptor 3 (Homo sapiens) (UniProt Q14832); assay: Agonist activity at mGluR3 (unknown origin) at 1 to 10 uM by Galphaqi5 calcium flux assay; settings: dose 1-10 µM
[14] = biological target: Metabotropic glutamate receptor 8 (Homo sapiens) (UniProt O00222); assay: Agonist activity at human mGluR8 expressed in CHO cells assessed as reduction in forskolin-induced cAMP production incubated for 1 hrs by HTRF analysis; format: cell-based
[15] = biological target: T1, Metabotropic glutamate receptor 7; assay: Allosteric agonist activity at mGluR7 (unknown origin) assessed as reduction in forskolin-induced cAMP production by measuring fold change in EC50 preincubated for 15 mins in the presence of LY341495 followed by forskolin stimulation and measured after 5 hrs by luminescence based steady glo assay; settings: filed as agonist, time 315.0 min
[16] = biological target: Metabotropic glutamate receptor 5 (Homo sapiens) (UniProt P41594); assay: Agonist activity at mGluR5 (unknown origin) at 1 to 10 uM by Galphaqi5 calcium flux assay; settings: dose 1-10 µM
[17] = Stability in cryopreserved rat hepatocytes assessed as clearance measured for 120 mins by LC-MS/MS analysis; format: ADME, cell-based, Hepatocyte; settings: read-out: CLH
[18] = biological target: T1, Metabotropic glutamate receptor 7; assay: Agonist activity at human mGluR7 expressed in CHO cells expressing CRE-Luc reporter gene assessed as reduction in forskolin-stimulated cAMP production preincubated for 15 mins followed by forskolin stimulation and measured after 5 hrs by luminescence based Steady glo assay; format: cell-based
[19] = biological target: Metabotropic glutamate receptor 7 (Mus musculus, UniProt Q68ED2); assay: Agonist activity at mouse mGluR7 expressed in CHO cells expressing CRE-Luc reporter gene assessed as reduction in forskolin-stimulated cAMP production preincubated for 15 mins followed by forskolin stimulation and measured after 5 hrs by luminescence based Steady glo assay; format: cell-based
[20] = Efflux ratio of apparent permeability in MDCK-MDR1 cells; format: ADME, cell-based, Canis lupus familiaris; settings: dog
[21] = biological target: Metabotropic glutamate receptor 4 (Homo sapiens) (UniProt Q14833); assay: Agonist activity at human mGluR4 expressed in CHO cells assessed as reduction in forskolin-induced cAMP production incubated for 1 hrs by HTRF analysis; format: cell-based
[22] = Oral bioavailability in Sprague-Dawley rat at 3 mg/kg measured after 24 hrs by LC-MS/MS analysis; format: ADME, organism-based; settings: in vivo
[23] = biological target: Metabotropic glutamate receptor 6 (Homo sapiens) (UniProt O15303); assay: Agonist activity at mGluR6 (unknown origin) at 1 to 10 uM by cAMP assay; settings: dose 1-10 µM
Rattus norvegicus [24] = assay: In vivo agonist activity in alcohol preferring Marchigian-Sardinian rat assessed as reduction in alcohol self-administration by measuring number of response at 3 mg/kg, po administered for 1 hrs; format: functional
Rattus norvegicus [25] = assay: In vivo agonist activity in alcohol preferring Marchigian-Sardinian rat assessed as reduction in alcohol self-administration at 3 mg/kg, po administered for 1 hrs relative to control; format: functional; set-up: scale not given: the % may be the effect or the level left
[26] = Half-life in Sprague-Dawley rat at 3 mg/kg, po measured after 24 hrs by LC-MS/MS analysis; format: ADME, organism-based; settings: in vivo
[27] = Ratio of drug concentration in Sprague-Dawley rat brain to plasma at 3 mg/kg, po measured after 4 hrs by LC-MS/MS analysis; format: ADME, organism-based
[28] = Ratio of unbound brain to plasma concentration in Sprague-Dawley rat at 3 mg/kg, po measured after 4 hrs by LC-MS/MS analysis; format: ADME, organism-based
[29] = biological target: Metabotropic glutamate receptor 1 (Homo sapiens) (UniProt Q13255); assay: Agonist activity at mGluR1 (unknown origin) at 1 to 10 uM by Galphaqi5 calcium flux assay; settings: dose 1-10 µM
[30] = Volume of distribution at steady state in Sprague-Dawley rat at 0.5 mg/kg, iv measured after 24 hrs by LC-MS/MS analysis; format: ADME, organism-based; settings: in vivo
[31] = Stability in rat liver microsomes assessed as intrinsic clearance preincubated for 60 mins followed by NADPH addition and measured upto 60 mins by LC-MS/MS analysis; format: ADME, Microsome; settings: time < 120 min, read-out: CLH
[32] = Stability in human liver microsomes assessed as intrinsic clearance preincubated for 60 mins followed by NADPH addition and measured upto 60 mins by LC-MS/MS analysis; format: ADME, Microsome; settings: time < 120 min, read-out: CLH
[33] = biological target: T1, Metabotropic glutamate receptor 7; assay: (§1) Positive allosteric modulation of mGluR7 (unknown origin) assessed as change in forskolin-induced cAMP production by measuring fold change in EC50 shift preincubated with compound for 15 mins in the presence of LY341495 followed by forskolin stimulation and measured after 5 hrs by luminescence based steady glo assay; settings: filed as positive allosteric modulator, time 315.0 min
[34] = biological target: T1, Metabotropic glutamate receptor 7; assay: as §1, with “reduction” for “fold change”, “maximum response” for “EC50 shift”; set-up: scale not given: the % may be the effect or the level left; settings: filed as positive allosteric modulator, time 315.0 min
[35] = biological target: T1, Metabotropic glutamate receptor 7; assay: Agonist activity at human mGluR7b expressed in CHO cells assessed as inhibition of forskolin-stimulated cAMP accumulation; format: cell-based
[36] = biological target: T1, Metabotropic glutamate receptor 7; assay: Desensitization at human mGluR7 expressed in CHO cells assessed as reduction in tool agonist response at 10 uM preincubated for 1 hrs followed by compound replacement with assay buffer and measured 1 hrs after tool agonist addition by CellKey impedance assay relative to control; format: cell-based; set-up: scale not given: the % may be the effect or the level left
[37] = biological target: Adrenergic receptor alpha-1 (Rattus norvegicus) (UniProt P15823+P23944+P43140); assay: Binding affinity to rat alpha 1 adrenergic receptor at 10 uM; format: protein assay
[38] = biological target: Sodium-dependent noradrenaline transporter (Homo sapiens) (UniProt P23975); assay: Binding affinity to human norepinephrine transporter at 10 uM
[39] = biological target: Histamine H1 receptor (Homo sapiens) (UniProt P35367); assay: Binding affinity to human H1 receptor at 10 uM

T1 sequence (Q14831 whole entry): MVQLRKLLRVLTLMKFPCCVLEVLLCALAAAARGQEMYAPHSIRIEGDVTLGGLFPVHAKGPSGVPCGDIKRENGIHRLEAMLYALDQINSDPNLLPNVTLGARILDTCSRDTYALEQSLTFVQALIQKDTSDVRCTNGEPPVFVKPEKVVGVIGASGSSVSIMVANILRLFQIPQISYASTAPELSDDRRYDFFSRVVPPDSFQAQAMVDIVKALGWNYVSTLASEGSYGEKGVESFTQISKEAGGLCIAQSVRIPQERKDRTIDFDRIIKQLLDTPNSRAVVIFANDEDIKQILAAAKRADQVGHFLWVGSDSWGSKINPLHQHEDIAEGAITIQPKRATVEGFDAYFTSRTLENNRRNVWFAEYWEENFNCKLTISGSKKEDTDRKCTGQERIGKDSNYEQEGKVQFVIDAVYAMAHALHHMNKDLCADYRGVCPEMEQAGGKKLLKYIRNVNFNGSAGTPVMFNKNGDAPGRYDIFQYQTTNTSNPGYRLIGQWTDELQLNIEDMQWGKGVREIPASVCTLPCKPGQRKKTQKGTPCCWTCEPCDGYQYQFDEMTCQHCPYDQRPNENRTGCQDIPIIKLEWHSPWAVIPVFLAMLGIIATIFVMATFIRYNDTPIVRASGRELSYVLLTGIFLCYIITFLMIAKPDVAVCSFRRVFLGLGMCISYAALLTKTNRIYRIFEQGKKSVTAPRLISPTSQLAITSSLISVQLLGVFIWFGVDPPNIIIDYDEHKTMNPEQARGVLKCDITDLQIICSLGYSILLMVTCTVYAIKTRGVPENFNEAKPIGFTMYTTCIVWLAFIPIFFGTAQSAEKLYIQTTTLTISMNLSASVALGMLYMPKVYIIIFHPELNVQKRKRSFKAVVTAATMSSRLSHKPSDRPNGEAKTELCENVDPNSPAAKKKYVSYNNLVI
Metabotropic glutamate receptor 3 (Homo sapiens), sequence (Q14832 23-879 limits assumed): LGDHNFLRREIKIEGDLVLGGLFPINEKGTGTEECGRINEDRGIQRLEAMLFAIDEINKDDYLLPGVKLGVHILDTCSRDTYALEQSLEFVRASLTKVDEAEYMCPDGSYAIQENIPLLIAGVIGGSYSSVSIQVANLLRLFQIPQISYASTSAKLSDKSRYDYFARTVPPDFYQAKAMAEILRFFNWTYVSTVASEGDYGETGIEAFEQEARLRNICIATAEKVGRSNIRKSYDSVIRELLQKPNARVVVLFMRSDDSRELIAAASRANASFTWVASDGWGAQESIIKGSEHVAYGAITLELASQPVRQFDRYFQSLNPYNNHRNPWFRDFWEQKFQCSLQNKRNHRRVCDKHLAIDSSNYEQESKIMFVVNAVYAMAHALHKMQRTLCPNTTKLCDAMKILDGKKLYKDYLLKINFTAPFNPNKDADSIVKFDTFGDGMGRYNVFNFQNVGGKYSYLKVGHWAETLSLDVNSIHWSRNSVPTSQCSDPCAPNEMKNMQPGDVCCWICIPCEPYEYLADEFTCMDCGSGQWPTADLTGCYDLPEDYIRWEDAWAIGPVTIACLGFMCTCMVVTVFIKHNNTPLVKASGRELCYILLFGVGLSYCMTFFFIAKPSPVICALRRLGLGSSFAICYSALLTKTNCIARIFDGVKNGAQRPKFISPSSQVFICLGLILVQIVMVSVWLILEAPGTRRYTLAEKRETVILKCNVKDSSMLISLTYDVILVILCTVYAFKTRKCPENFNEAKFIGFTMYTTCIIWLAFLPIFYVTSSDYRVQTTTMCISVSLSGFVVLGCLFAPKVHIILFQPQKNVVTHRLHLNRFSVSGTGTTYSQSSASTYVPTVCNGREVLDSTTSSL
Metabotropic glutamate receptor 2 (Homo sapiens), sequence (Q14416 19-872 limits assumed): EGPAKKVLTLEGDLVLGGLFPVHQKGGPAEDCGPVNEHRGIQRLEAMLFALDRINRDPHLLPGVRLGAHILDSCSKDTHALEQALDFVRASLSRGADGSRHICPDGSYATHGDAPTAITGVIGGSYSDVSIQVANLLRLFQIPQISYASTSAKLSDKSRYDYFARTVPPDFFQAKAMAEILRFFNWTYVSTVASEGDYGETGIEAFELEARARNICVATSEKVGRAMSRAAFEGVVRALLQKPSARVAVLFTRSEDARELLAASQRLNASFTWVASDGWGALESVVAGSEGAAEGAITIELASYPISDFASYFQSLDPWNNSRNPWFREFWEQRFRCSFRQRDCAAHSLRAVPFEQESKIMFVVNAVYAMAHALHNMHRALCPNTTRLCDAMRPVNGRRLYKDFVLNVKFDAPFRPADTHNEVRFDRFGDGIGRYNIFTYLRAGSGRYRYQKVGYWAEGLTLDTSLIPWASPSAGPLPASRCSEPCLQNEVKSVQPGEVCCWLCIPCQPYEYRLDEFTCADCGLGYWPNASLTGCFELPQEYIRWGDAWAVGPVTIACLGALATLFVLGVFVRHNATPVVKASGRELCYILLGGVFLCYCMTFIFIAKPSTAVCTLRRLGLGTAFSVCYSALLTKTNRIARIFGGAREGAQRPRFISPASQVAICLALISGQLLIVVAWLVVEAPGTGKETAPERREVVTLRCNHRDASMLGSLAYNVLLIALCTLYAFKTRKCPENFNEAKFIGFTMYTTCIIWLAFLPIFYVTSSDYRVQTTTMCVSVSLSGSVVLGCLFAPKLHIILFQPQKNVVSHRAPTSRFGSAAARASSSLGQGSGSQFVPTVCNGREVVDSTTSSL
Metabotropic glutamate receptor 6 (Homo sapiens), sequence (O15303 whole entry): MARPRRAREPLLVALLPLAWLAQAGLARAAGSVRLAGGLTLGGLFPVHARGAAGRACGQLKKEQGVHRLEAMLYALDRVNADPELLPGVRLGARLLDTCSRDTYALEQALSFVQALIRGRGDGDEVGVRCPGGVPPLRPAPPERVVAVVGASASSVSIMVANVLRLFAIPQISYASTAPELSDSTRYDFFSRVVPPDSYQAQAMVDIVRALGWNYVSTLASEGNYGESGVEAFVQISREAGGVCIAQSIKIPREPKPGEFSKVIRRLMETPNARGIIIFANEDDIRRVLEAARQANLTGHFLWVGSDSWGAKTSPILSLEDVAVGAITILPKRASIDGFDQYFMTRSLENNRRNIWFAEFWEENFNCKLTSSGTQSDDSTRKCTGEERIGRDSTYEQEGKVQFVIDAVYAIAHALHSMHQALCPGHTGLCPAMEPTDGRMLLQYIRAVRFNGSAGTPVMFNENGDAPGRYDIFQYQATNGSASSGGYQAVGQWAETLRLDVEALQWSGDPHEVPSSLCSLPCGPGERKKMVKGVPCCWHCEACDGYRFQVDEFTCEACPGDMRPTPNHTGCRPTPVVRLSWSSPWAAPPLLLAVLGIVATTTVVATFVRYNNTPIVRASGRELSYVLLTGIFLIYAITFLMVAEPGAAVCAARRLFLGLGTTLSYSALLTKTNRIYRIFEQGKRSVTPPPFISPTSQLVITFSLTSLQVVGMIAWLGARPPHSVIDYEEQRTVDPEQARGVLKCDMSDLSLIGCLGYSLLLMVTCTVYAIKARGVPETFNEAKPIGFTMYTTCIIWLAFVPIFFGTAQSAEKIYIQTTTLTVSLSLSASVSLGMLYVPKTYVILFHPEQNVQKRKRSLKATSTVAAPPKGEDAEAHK
Metabotropic glutamate receptor 5 (Homo sapiens), sequence (P41594 21-1212 limits assumed): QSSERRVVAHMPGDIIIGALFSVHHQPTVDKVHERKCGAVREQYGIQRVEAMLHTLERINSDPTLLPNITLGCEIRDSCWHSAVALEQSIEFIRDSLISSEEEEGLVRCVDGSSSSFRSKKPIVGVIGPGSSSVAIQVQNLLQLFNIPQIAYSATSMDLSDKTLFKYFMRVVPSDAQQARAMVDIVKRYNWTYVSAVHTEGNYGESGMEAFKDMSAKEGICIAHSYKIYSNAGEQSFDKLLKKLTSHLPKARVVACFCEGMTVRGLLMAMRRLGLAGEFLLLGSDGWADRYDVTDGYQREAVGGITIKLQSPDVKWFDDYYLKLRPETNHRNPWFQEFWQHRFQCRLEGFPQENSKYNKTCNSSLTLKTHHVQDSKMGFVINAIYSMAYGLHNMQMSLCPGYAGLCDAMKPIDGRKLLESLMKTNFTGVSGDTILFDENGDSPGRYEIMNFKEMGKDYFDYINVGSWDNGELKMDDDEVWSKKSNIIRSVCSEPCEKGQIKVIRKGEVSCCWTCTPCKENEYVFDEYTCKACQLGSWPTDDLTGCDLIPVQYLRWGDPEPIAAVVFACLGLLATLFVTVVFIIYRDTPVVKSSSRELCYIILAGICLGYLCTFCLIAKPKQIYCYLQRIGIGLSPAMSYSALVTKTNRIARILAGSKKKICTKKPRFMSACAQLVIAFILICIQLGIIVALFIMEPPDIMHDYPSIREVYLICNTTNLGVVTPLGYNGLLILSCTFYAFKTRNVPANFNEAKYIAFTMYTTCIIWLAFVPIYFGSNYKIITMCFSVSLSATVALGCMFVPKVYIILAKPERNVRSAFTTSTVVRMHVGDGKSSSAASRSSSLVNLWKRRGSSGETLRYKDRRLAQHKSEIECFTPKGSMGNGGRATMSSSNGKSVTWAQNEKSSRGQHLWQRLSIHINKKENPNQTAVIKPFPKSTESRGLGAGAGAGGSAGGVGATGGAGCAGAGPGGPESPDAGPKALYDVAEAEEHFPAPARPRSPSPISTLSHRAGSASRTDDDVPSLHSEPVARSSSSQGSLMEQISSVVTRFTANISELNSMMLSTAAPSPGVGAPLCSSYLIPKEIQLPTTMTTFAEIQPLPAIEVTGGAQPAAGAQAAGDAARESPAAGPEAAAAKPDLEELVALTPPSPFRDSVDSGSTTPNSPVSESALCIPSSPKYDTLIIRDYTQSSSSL
Metabotropic glutamate receptor 7 (Mus musculus, UniProt Q68ED2), sequence (Q68ED2 whole entry): as the sequence (Q14831 whole entry) above, with R5G, A27V, S488T, A520P, D578N counted along it

`N[C@@H](CCP(=O)(O)O)C(=O)O` showed a fold change (FC) [1] of 13.

For `N[C@@H](CCC(=O)O)C(=O)O`, the Activity [2] was “Active”.

In the case of `C[C@H](C(=O)N[C@H]1COc2ccccc2[C@@H]1S(C)(=O)=O)c1ccc(F)cc1`, the Cmax [3] is reported as 1240 nM, the Activity (Rattus norvegicus [4]) is reported as “Dose-Dependent Effect” and the Papp [5] is reported as 16.2 ×10⁻⁶ cm/s. The Activity [6] was “inactive”, the Emax [7] was 97% and the AUC [8] was 1404 ng·h/mL. The Activity [9] was “inactive”, the Tmax [10] was 0.67 h and the Fu [11] was 0.283. For the same compound, the Activity [2] was “Active”, the Fu [12] was 0.227 and the Activity [13] was “inactive”. The Activity [14] was “inactive”, the fold change (FC) [15] was 2 and the Activity [16] was “inactive”. The CLint scaled [17] was 145 mL/min/kg, the EC50 [18] was 7 nM and the EC50 [19] was 2 nM. The Ratio [20] was 0.5, the Activity [21] was “inactive” and the F [22] was 24%. The Activity [23] was “inactive”, the Activity (Rattus norvegicus [24]) was 40.9 and the Activity (Rattus norvegicus [25]) was 25%. The t1/2 [26] was 2.25 h, the BPR [27] was 0.56 and the “K(p,uu,brain)” value [28] was 0.45. For the same compound, the Activity [29] was “inactive” and the Vdss [30] was 1.49 L/kg.

For `O=C(Cc1ccc(Cl)cc1)NC1Cc2ccccc2C1`, the Emax [7] was 71% and the EC50 [18] was 156 nM.

`C[C@H](C(=O)NC1Cc2ccccc2C1)c1ccc(F)cc1` gave an Emax [7] of 96% and an EC50 [18] of 55 nM.

In the case of `C[C@H](C(=O)N[C@@H]1CCc2ccccc2[C@H]1S(C)(=O)=O)c1ccc(F)cc1`, the Emax [7] is reported as 95%, the microsomal CLint [31] is reported as 55 µL/min/mg and the microsomal CLint [32] is reported as 2 µL/min/mg.

`O=C(Nc1ccc(Oc2ccc(Cl)cn2)c(Cl)c1)c1ccccn1` showed a fold change (FC) [33] of 2 and an Activity [34] of 43%.

`CNC[C@@H](OCC(=O)N1CCCc2ccccc21)c1ccccc1` showed an EC50 [35] of 110 nM.

`C[C@@H](C(=O)NC1Cc2ccccc2C1)c1ccccc1` gave an Emax [7] of 69% and an EC50 [18] of 1340 nM.

Work on `C[C@H](C(=O)NC1Cc2ccccc2C1)c1ccccc1` yielded an Emax [7] of 95% and an EC50 [18] of 113 nM.

For `c1ccc(C(NCCNC(c2ccccc2)c2ccccc2)c2ccccc2)cc1`, the Activity [36] was 74%, the Activity [2] was “Active” and the EC50 [35] was 64 nM. For the same compound, the Activity [37] was “Active”, the Activity [38] was “Active” and the fold change (FC) [15] was 2. The Activity [39] was “Active”.

Source: ChEMBL document CHEMBL5252666, “Discovery of CVN636: A Highly Potent, Selective, and CNS Penetrant mGluR7 Allosteric Agonist” (ACS Med Chem Lett, 2023)
